These are literature values, as cited in PMC6630532 (ACS Infectious Diseases, 2019).

Usually IC50 stands for the concentration at which inhibition is half-maximal.

The series deals with bacteria. Conditions: read-out: IC50 (in vitro antimicrobial effect of killing 50% of the bacteria).

For the substance H-TGRAKRRMQYNRR-NH2 [UBI29–41], the IC50 is 20 µM.
